Experimental data taken from patent US5013719A, “Method of effecting immunosuppression” (Merrell Dow Pharmaceuticals Inc., priority 1988, dated 1991).

Test system: cytolytic T lymphocyte induction (51Cr labeled P815 target cells)
Test: Cytolytic T-lymphocyte induction in vivo (splenic cytolytic activity, 4-hour 51Cr release assay)
Set-up: species or system C57BL/6 mice
Conditions: DFMO 2% in drinking water from day 1; splenic CTL activity day 10; vs vehicle treated control
Description: Alloreactive cytolytic T-lymphocytes (CTL) are generated in vivo by injecting C57BL/6 mice intraperitoneally with allogenic P815 (H-2^d) cells (10^7) on day 0.
Splenic cytolytic activity, which represents a direct measurement of immune response, is assessed by a 4-hour ^51 Cr release assay as described by Bowlin et al., Cell. […] Effector cells are characterized as T-cells based on surface phenotype (Thy 1.2^+, Lyt 2.2^+, L3T4^-) and allo-specificity (H-^2 d) as described by Bowlin et al., Cell Immunnol.
^a C57BL/6 mice were injected with allogeneic P815 cells on day 0.
DFMO was administered continuously, starting on day 1, in drinking water.
^b Splenic cytolytic T lymphocyte activity was assessed on day 10
utilizing ^51 Cr labeled P815 target cells. Data is expressed as %
inhibition compared with vehicle treated control.

Compound: NCCC[C@](N)(C(=O)O)C(F)F [DFMO, α-difluoromethylornithine]
- Cytolytic T Lymphocyte Induction % Inhibition (mean ± S.E., n = 3): 10 ± 0.5%
